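Exposure lasted 48 hours, with cells grown in 96-well plates and compounds tested at five concentrations. GI50 marks 50% less growth.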 Activity calls are given as the source filed them. Cut-off read from the data, not from the text of the source: active = GI50 up to about 1.1 µM and inactive = higher.
Key:
Test in all cases: DTP human tumour cell line panel, 48 h
UACC-62 = system: UACC-62
HCT-15 = system: HCT-15
SN12C = system: SN12C
RPMI-8226 = system: RPMI-8226
HOP-92 = system: HOP-92
UO-31 = system: UO-31
SF-539 = system: SF-539
NCI-H23 = system: NCI-H23
COLO 205 = system: COLO 205
SK-MEL-2 = system: SK-MEL-2
SR = system: SR
HT-29 = system: HT-29
M14 = system: M14
SNB-19 = system: SNB-19
786-0 = system: 786-0
HOP-62 = system: HOP-62
A498 = system: A498
MCF7 = system: MCF7
DU-145 = system: DU-145

SMILES	GI50 (UACC-62)	GI50 (HCT-15) [µM]	GI50 (SN12C)	GI50 (RPMI-8226)	GI50 (HOP-92)	GI50 (UO-31)	GI50 (SF-539)	GI50 (NCI-H23)	GI50 (COLO 205)	GI50 (SK-MEL-2)	GI50 (SR)	GI50 (HT-29)	GI50 (M14)	GI50 (SNB-19)	GI50 (786-0)	GI50 (HOP-62)	GI50 (A498)	GI50 (MCF7)	GI50 (DU-145)
CC1=C(c2cc(C(=O)Nc3nccs3)nc(NC#N)n2)Sc2ccccc2N1	> 100 µM (inactive)	65.3	> 100 µM (inactive)	> 100 µM (inactive)	> 100 µM (inactive)	> 100 µM (inactive)	> 100 µM (inactive)	> 100 µM (inactive)	> 100 µM (inactive)	> 100 µM (inactive)	> 100 µM (inactive)	> 100 µM (inactive)	> 100 µM (inactive)	> 100 µM (inactive)	> 100 µM (inactive)	> 100 µM (inactive)	> 100 µM (inactive)	–	–
Cc1ccc2nc(N)[nH]c(=O)c2c1Sc1ccncc1	7.4 µM (inactive)	> 100	17.5 µM (inactive)	23.3 µM (inactive)	25.9 µM (inactive)	64.1 µM (inactive)	4.78 µM (inactive)	60.3 µM (inactive)	> 92.9 µM (inactive)	> 100 µM (inactive)	5.07 µM (inactive)	> 100 µM (inactive)	8.63 µM (inactive)	> 100 µM (inactive)	12.2 µM (inactive)	5.11 µM (inactive)	> 78.9 µM (inactive)	–	–
O=C(O)CCSC(=O)Nc1ccccc1Cl	> 100 µM (inactive)	> 100	> 100 µM (inactive)	> 100 µM (inactive)	> 100 µM (inactive)	> 100 µM (inactive)	> 100 µM (inactive)	> 100 µM (inactive)	> 100 µM (inactive)	–	> 100 µM (inactive)	> 100 µM (inactive)	> 100 µM (inactive)	> 100 µM (inactive)	> 100 µM (inactive)	> 100 µM (inactive)	60 µM (inactive)	–	–
N#C/C(=C\c1ccc(O)c(O)c1)C(N)=S [TYRPHOSTIN 47]	81.5 µM (inactive)	53.5	> 100 µM (inactive)	> 49.2 µM (inactive)	> 58.3 µM (inactive)	98.9 µM (inactive)	> 94.4 µM (inactive)	64 µM (inactive)	56 µM (inactive)	> 100 µM (inactive)	36.1 µM (inactive)	61.8 µM (inactive)	> 100 µM (inactive)	> 70.3 µM (inactive)	56.6 µM (inactive)	> 100 µM (inactive)	> 100 µM (inactive)	–	–
CC1(c2ccccc2)CC(c2ccccc2)=NO1 (stereo not given)	> 100 µM (inactive)	> 100	> 100 µM (inactive)	> 100 µM (inactive)	> 100 µM (inactive)	> 100 µM (inactive)	> 100 µM (inactive)	> 100 µM (inactive)	> 100 µM (inactive)	> 100 µM (inactive)	> 100 µM (inactive)	> 100 µM (inactive)	> 100 µM (inactive)	> 100 µM (inactive)	> 100 µM (inactive)	> 100 µM (inactive)	> 100 µM (inactive)	–	–
CC1C2=C(CCCC2=O)N(c2ccc(Cl)cc2)C2=C1C(=O)CCC2	67.1 µM (inactive)	70	83 µM (inactive)	67 µM (inactive)	42.3 µM (inactive)	46.2 µM (inactive)	> 100 µM (inactive)	> 100 µM (inactive)	–	–	39.2 µM (inactive)	45.6 µM (inactive)	> 100 µM (inactive)	> 100 µM (inactive)	> 100 µM (inactive)	–	> 100 µM (inactive)	57.7 µM (inactive)	–
Cn1c(=O)c2c3oc(=O)cc(O)c3c(=O)n3c4ccccc4n(c1=O)c23	35 µM (inactive)	27.8	34 µM (inactive)	24 µM (inactive)	33.2 µM (inactive)	28.8 µM (inactive)	47.6 µM (inactive)	35.6 µM (inactive)	27.9 µM (inactive)	23.4 µM (inactive)	20.4 µM (inactive)	39.7 µM (inactive)	43.3 µM (inactive)	> 100 µM (inactive)	33.3 µM (inactive)	> 100 µM (inactive)	23.9 µM (inactive)	–	–
CC1OC(n2cc(I)c(=O)[nH]c2=O)C=CC1=O (stereo not given)	17.2 µM (inactive)	17.1	18.7 µM (inactive)	13.9 µM (inactive)	19.7 µM (inactive)	16.9 µM (inactive)	14.1 µM (inactive)	17 µM (inactive)	17 µM (inactive)	17.9 µM (inactive)	12.6 µM (inactive)	16.8 µM (inactive)	16.9 µM (inactive)	17.7 µM (inactive)	14 µM (inactive)	18.5 µM (inactive)	16.1 µM (inactive)	–	–
Cc1ccc(S(=O)(=O)NC(=O)NC(C(=O)O)C(C)O)cc1 (stereo not given)	> 100 µM (inactive)	> 100	> 100 µM (inactive)	> 100 µM (inactive)	> 100 µM (inactive)	> 100 µM (inactive)	> 100 µM (inactive)	> 100 µM (inactive)	> 100 µM (inactive)	> 100 µM (inactive)	> 100 µM (inactive)	> 100 µM (inactive)	> 100 µM (inactive)	> 100 µM (inactive)	> 100 µM (inactive)	> 100 µM (inactive)	–	> 100 µM (inactive)	> 100 µM (inactive)
C/C(CC(=O)Nc1ccc(NC(=O)C/C(C)=N\NC(N)=O)cc1)=N/NC(N)=O	> 84.9 µM (inactive)	> 42.3	> 100 µM (inactive)	24.8 µM (inactive)	71.1 µM (inactive)	> 85.1 µM (inactive)	> 100 µM (inactive)	98.4 µM (inactive)	> 50.9 µM (inactive)	> 95.3 µM (inactive)	38.5 µM (inactive)	96.8 µM (inactive)	65.3 µM (inactive)	> 100 µM (inactive)	> 68.9 µM (inactive)	> 100 µM (inactive)	> 100 µM (inactive)	–	–
c1ccc(-c2sc(-c3ccccc3)c3c2C(c2ccccc2)c2c(-c4ccccc4)sc(-c4ccccc4)c2C3c2ccccc2)cc1 (stereo not given)	> 100 µM (inactive)	> 100	> 100 µM (inactive)	> 100 µM (inactive)	> 100 µM (inactive)	> 100 µM (inactive)	> 100 µM (inactive)	> 100 µM (inactive)	> 100 µM (inactive)	–	> 100 µM (inactive)	> 100 µM (inactive)	> 100 µM (inactive)	> 100 µM (inactive)	> 100 µM (inactive)	> 100 µM (inactive)	> 100 µM (inactive)	–	–
Cc1cccc(C)c1N1C(=O)C(=O)C(c2nc3ccccc3s2)/C(=N/NC(=O)NN)C1=O (stereo not given)	> 100 µM (inactive)	> 100	> 100 µM (inactive)	–	> 100 µM (inactive)	> 100 µM (inactive)	> 100 µM (inactive)	> 100 µM (inactive)	> 100 µM (inactive)	> 100 µM (inactive)	> 100 µM (inactive)	> 100 µM (inactive)	> 100 µM (inactive)	> 100 µM (inactive)	> 100 µM (inactive)	> 100 µM (inactive)	> 100 µM (inactive)	–	–

Reference: ChEMBL document CHEMBL1201862, “PubChem BioAssay data set” (2004)
